Source: ChEMBL document CHEMBL1149954, “Synthesis of methyl -sialosides N-substituted with large alkanoyl groups, and investigation of their inhibition of agglutination of erythrocytes by influenza A virus” (Bioorg Med Chem Lett, 1993)

What was measured:
[1] = Compound was tested for the inhibition of hemagglutinination when incorporated into liposomes (Hemagglutinination inhibition (HAI) assay); no inhibition took place
[2] = species on record: Gallus gallus; test: Compound was tested for its ability to displace a fluorescent ligand from the active site of bromelaine-cleaved hemagglutininin (BHA) at concentrations above 5 mM; no displacement was observed
[3] = Compound was tested for its ability to displace a fluorescent ligand from the active site of bromelaine-cleaved hemagglutininin (BHA); design: species or system Gallus gallus

## CCCCCCCCCCCCCC(=O)NC1C(O)CC(OC)(C(=O)O)OC1[C@H](O)[C@H](O)CO (stereo partly drawn)
[1]
  Ki: > 1000 µM

## CCCCCCCC(=O)NC1C(O)CC(OC)(C(=O)O)OC1[C@H](O)[C@H](O)CO (stereo partly drawn)
[2]
  Binding affinity: no displacement was observed

## COC(=O)C1(OC)CC(O)C(NC(C)=O)C([C@H](O)[C@H](O)CO)O1 (stereo partly drawn)
[3]
  Kd: 2800 µM
